Experimental findings from US20230089867A1, “CYCLIC PENTAMER COMPOUNDS AS PROPROTEIN CONVERTASE SUBTILISIN/KEXIN TYPE 9 (PCSK9) INHIBITORS FOR THE TREATMENT OF METABOLIC DISORDER” (Novartis AG, priority 2018, published 2023) are described below.

The term IC50 denotes the point on the concentration scale where inhibition reaches its midpoint.

The target in this assay is human PCSK9 (Homo sapiens, UniProt Q8NBP7). Kind of assay: PCSK9 ligand binding TR-FRET assay (interference with binding of human PCSK9 to human LDLR). The following applies: for Max % inhibition: PCSK9 FRET assay, efficacy (Amax), 100% = 1 uM unlabeled human PCSK9, 0% = DMSO; for IC50: TR-FRET, human PCSK9 Alexa Fluor 647 / human LDLR extracellular domain-Europium Kryptate, read-out: PCSK9 FRET Assay IC50. The method in brief: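 Threefold compound dilutions were pre-incubated 30 min with PCSK9, after which 4 nM Europium Kryptate-tagged human LDLR ectodomain was added for a further 2 h.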
On the technique in general: In TR-FRET formats the signal depends on donor and acceptor labels being close together.

Sequence of human PCSK9 (Q8NBP7 153-692): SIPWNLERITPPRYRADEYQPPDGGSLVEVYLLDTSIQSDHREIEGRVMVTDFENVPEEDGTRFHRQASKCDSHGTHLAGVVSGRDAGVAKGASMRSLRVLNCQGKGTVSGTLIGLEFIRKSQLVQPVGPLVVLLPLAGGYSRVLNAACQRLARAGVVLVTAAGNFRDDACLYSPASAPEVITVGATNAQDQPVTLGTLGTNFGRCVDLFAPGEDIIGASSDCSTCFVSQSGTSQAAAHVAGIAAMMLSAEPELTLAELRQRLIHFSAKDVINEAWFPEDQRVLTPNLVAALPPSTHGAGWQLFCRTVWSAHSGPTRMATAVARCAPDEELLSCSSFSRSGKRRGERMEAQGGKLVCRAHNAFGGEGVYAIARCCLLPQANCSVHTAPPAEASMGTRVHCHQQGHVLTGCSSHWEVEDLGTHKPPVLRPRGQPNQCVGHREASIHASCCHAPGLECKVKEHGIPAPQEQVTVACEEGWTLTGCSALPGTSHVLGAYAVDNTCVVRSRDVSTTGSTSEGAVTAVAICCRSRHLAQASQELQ
Sequence of human PCSK9 (Q8NBP7 31-152 partner limits assumed): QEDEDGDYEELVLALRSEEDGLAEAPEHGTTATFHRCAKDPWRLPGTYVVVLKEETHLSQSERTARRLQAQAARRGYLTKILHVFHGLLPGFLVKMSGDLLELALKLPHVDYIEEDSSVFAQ

For the molecule `COC[C@@H]1NC(=O)[C@H](C)N(Cc2ccc(Cl)cc2Oc2ccc(-c3cnc(CN4CCCC4)n3C)cc2)C(=O)C[C@@H](Cc2ccccc2)C(=O)N(C)[C@@H](CCF)CNC(=O)C[C@H](Cc2ccc(Cl)cc2)N(C)C1=O` [Compound 83, (2S,5S,8S,13S,16R)-16-benzyl-1-(4-chloro-2-(4-(1-methyl-2-(pyrrolidin-1-ylmethyl)-1H-imidazol-5-yl)phenoxy)benzyl)-8-(4-chlorobenzyl)-13-(2-fluoroethyl)-5-(methoxymethyl)-2,7,14-trimethyl-1,4,7,11,14-pentaazacyclooctadecane-3,6,10,15,18-pentaone], the Max % inhibition is 99.18% and the IC50 was 1.7 nM.
For the molecule `CCc1ccc(CN2C(=O)C[C@@H](Cc3ccccc3)C(=O)N(C)[C@H]3CCCC[C@@H]3NC(=O)C[C@H](Cc3ccc(Cl)cc3)N(C)C(=O)[C@H](COC)NC(=O)[C@@H]2C)c(Oc2ccc(-c3cnc([C@@H](C)N(C)C)n3C)cc2)c1` [Compound 85, (4S,7S,10S,14R,16aS,20aS)-14-benzyl-4-(4-chlorobenzyl)-11-(2-(4-(2-((R)-1-(dimethylamino)ethyl)-1-methyl-1H-imidazol-5-yl)phenoxy)-4-ethylbenzyl)-7-(methoxymethyl)-5,10,16-trimethylhexadecahydrobenzo[l][1,4,7,11,14]pentaazacyclooctadecine-2,6,9,12,15(3H)-pentaone], the Max % inhibition worked out at 114.68% and the IC50 came to 0.9 nM.
Regarding `CNc1ncc(-c2ccc(Oc3cc(Cl)ccc3CN3C(=O)C[C@@H](Cc4ccccc4)C(=O)N(C)[C@@H](C)CNC(=O)C[C@H](Cc4ccc(Cl)cc4)N(C)C(=O)[C@H](COC)NC(=O)[C@@H]3C)cc2)cn1` [Compound 86, (2S,5S,8S,13S,16R)-16-benzyl-1-(4-chloro-2-(4-(2-(methylamino)pyrimidin-5-yl)phenoxy)benzyl)-8-(4-chlorobenzyl)-5-(methoxymethyl)-2,7,13,14-tetramethyl-1,4,7,11,14-pentaazacyclooctadecane-3,6,10,15,18-pentaone], the Max % inhibition stood at 56.62% and the IC50 is 20.5 nM.
Turning to `COC[C@@H]1NC(=O)[C@H](CCO)N(Cc2ccc(Cl)cc2Oc2ccc(-c3cnc(CN(C)C)n3C)cc2)C(=O)C[C@@H](Cc2ccccc2)C(=O)N(C)[C@@H](C)CNC(=O)C[C@H](Cc2ccc(Cl)cc2)N(C)C1=O` [Compound 87, (2S,5S,8S,13S,16R)-16-benzyl-1-(4-chloro-2-(4-(2-((dimethylamino)methyl)-1-methyl-1H-imidazol-5-yl)phenoxy)benzyl)-8-(4-chlorobenzyl)-2-(2-hydroxyethyl)-5-(methoxymethyl)-7,13,14-trimethyl-1,4,7,11,14-pentaazacyclooctadecane-3,6,10,15,18-pentaone], the Max % inhibition was found to be 87.74% and the half-maximal inhibitory concentration (IC50) was 497 nM.
The corresponding values for `COC[C@@H]1NC(=O)[C@H](C)N(Cc2c(C)cccc2Oc2ccc(-c3cnc(CN(C)C)n3C)cc2)C(=O)C[C@@H](Cc2ccccc2)C(=O)N(C)[C@@H](C)CNC(=O)C[C@H](Cc2ccc(Cl)cc2)N(C)C1=O` [Compound 88, (2S,5S,8S,13S,16R)-16-benzyl-8-(4-chlorobenzyl)-1-(2-(4-(2-((dimethylamino)methyl)-1-methyl-1H-imidazol-5-yl)phenoxy)-6-methylbenzyl)-5-(methoxymethyl)-2,7,13,14-tetramethyl-1,4,7,11,14-pentaazacyclooctadecane-3,6,10,15,18-pentaone] are 90.30% and 40.1 nM.
For `COC[C@@H]1NC(=O)[C@H](C)N(Cc2ccc(Cl)cc2Oc2ccc(-c3cnc(CN(C)C)n3C)cc2)C(=O)C[C@@H](CC#N)C(=O)N(C)[C@H]2CCCC[C@@H]2NC(=O)C[C@H](Cc2ccc(Cl)cc2)N(C)C1=O` [Compound 89, 2-((4S,7S,10S,14R,16aS,20aS)-11-(4-chloro-2-(4-(2-((dimethylamino)methyl)-1-methyl-1H-imidazol-5-yl)phenoxy)benzyl)-4-(4-chlorobenzyl)-7-(methoxymethyl)-5,10,16-trimethyl-2,6,9,12,15-pentaoxodocosahydrobenzo[l][1,4,7,11,14]pentaazacyclooctadecin-14-yl)acetonitrile], the Max % inhibition stood at 85.89% and the IC50 was 1.6 nM.
For `COC[C@@H]1NC(=O)[C@H](CCCN(C)C)N(Cc2ccc(Cl)cc2Oc2ccc(-c3cnc(CN(C)C)n3C)cc2)C(=O)C[C@@H](Cc2ccccc2)C(=O)N(C)[C@@H](C)[C@H](C)NC(=O)C[C@H](Cc2ccc(Cl)cc2)N(C)C1=O` [Compound 90, (2S,5S,8S,12S,13S,16R)-16-benzyl-1-(4-chloro-2-(4-(2-((dimethylamino)methyl)-1-methyl-1H-imidazol-5-yl)phenoxy)benzyl)-8-(4-chlorobenzyl)-2-(3-(dimethylamino)propyl)-5-(methoxymethyl)-7,12,13,14-tetramethyl-1,4,7,11,14-pentaazacyclooctadecane-3,6,10,15,18-pentaone], the Max % inhibition stood at 101.52% and the IC50 is 2.1 nM.
The corresponding values for `COC[C@@H]1NC(=O)[C@@H](CCN(C)C)N(Cc2ccc(Cl)cc2Oc2ccc(-c3cnc(CN(C)C)n3C)cc2)C(=O)C[C@@H](Cc2ccccn2)C(=O)N(C)[C@H]2CCCC[C@@H]2NC(=O)C[C@H](Cc2ccc(Cl)cc2)N(C)C1=O` [Compound 91, (4S,7S,10R,14R,16aS,20aS)-11-(4-chloro-2-(4-(2-((dimethylamino)methyl)-1-methyl-1H-imidazol-5-yl)phenoxy)benzyl)-4-(4-chlorobenzyl)-10-(2-(dimethylamino)ethyl)-7-(methoxymethyl)-5,16-dimethyl-14-(pyridin-2-ylmethyl)hexadecahydrobenzo[l][1,4,7,11,14]pentaazacyclooctadecine-2,6,9,12,15(3H)-pentaone] are 86.95% and 168 nM.
In the case of `COC[C@@H]1NC(=O)[C@H](C)N(Cc2ccc(Cl)cc2Oc2ccc(-c3cnc(OC(C)C)n3C)cc2)C(=O)C[C@@H](Cc2ccccc2)C(=O)N(C)[C@@H](C)CNC(=O)C[C@H](Cc2ccc(Cl)cc2)N(C)C1=O` [Compound 92, (2S,5S,8S,13S,16R)-16-benzyl-1-(4-chloro-2-(4-(2-isopropoxy-1-methyl-1H-imidazol-5-yl)phenoxy)benzyl)-8-(4-chlorobenzyl)-5-(methoxymethyl)-2,7,13,14-tetramethyl-1,4,7,11,14-pentaazacyclooctadecane-3,6,10,15,18-pentaone], the Max % inhibition worked out at 61.54% and the concentration for half-maximal inhibition (IC50) is 64.6 nM.
For the molecule `COC[C@@H]1NC(=O)[C@H](CCC(=O)N2CCOCC2)N(Cc2ccc(Cl)cc2Oc2ccc(-c3cnc(CN(C)C)n3C)cc2)C(=O)C[C@@H](Cc2ccccc2)C(=O)N(C)[C@H]2CCCC[C@@H]2NC(=O)C[C@H](Cc2ccc(Cl)cc2)N(C)C1=O` [Compound 93, (4S,7S,10S,14R,16aS,20aS)-14-benzyl-11-(4-chloro-2-(4-(2-((dimethylamino)methyl)-1-methyl-1H-imidazol-5-yl)phenoxy)benzyl)-4-(4-chlorobenzyl)-7-(methoxymethyl)-5,16-dimethyl-10-(3-morpholino-3-oxopropyl)hexadecahydrobenzo[l][1,4,7,11,14]pentaazacyclooctadecine-2,6,9,12,15(3H)-pentaone], the Max % inhibition is recorded as 96.70% and the IC50 turned out to be 6.3 nM.
